Values joined by “and” are separate entries in the source; they are usually repeats but may differ in a detail not shown here. Equal entries are not always repeated. Toxic doses and inconclusive results are not listed. The calls were made as follows: active = survival T/C of 150% or more; inactive = T/C below 125% in these data. Starred links: 1 amine or outer side, 2 acyl side, 3 side chain; linkers in the order of their positions; H or OH if unused. Positions of bridges follow the written chain, without caps; N, C: chain ends. Non-standard residues stand in square brackets, D forms with d. Residues, ends and D or L forms follow the SMILES beside them. Chains are numbered I, II in the order given. Actinocin(9to1) = Cc1c2oc3c(C)ccc(C(=O)[*:1])c3nc-2c(C(=O)[*:2])c(N)c1=O; NMeV = CN[CH](C(=O)O)C(C)C; Sar = CNCC(=O)O
Tested on: BALB/c mice, Madison 109 lung carcinoma i.m., survival
Assay: NCI In Vivo Anticancer Drug Screen. Data for tumor model Madison 109 Lung Carcinoma (intramuscular) in BALB/CM mice
Details: endpoint: median survival time, higher = longer survival
Method: The antitumor activity of compounds was measured in mice bearing transplantable tumors. Survival or tumor size were measured and the results are expressed as the measurement made in the treated group (T) divided by the measurement made in the vehicle treated control group (C). The tumor model used in this assay is Madison 109 Lung Carcinoma (intramuscular) in BALB/CM mice

[1] = dose: 0.12 mg/kg/injection, schedule: Q01DX009 (ip), vehicle: saline
[2] = dose: 0.12 mg/kg/injection, schedule: Q01DX009 (ip), vehicle: water
[3] = dose: 0.25 mg/kg/injection, schedule: Q01DX009 (ip), vehicle: saline
[4] = dose: 0.5 mg/kg/injection, schedule: Q01DX009 (ip), vehicle: saline
[5] = dose: 0.5 mg/kg/injection, schedule: Q01DX009 (ip), vehicle: water
[6] = dose: 1.0 mg/kg/injection, schedule: Q01DX009 (ip), vehicle: saline
[7] = dose: 1.0 mg/kg/injection, schedule: Q01DX009 (ip), vehicle: water
[8] = dose: 8.0 mg/kg/injection, schedule: Q01DX009 (ip), vehicle: saline with Tween-80
[9] = dose: 16.0 mg/kg/injection, schedule: Q01DX009 (ip), vehicle: saline with Tween-80
[10] = dose: 32.0 mg/kg/injection, schedule: Q01DX009 (ip), vehicle: saline with Tween-80
[11] = dose: 64.0 mg/kg/injection, schedule: Q01DX009 (ip), vehicle: saline with Tween-80
[12] = dose: 25.0 mg/kg/injection, schedule: Q01DX009 (ip), vehicle: saline with Tween-80
[13] = dose: 100.0 mg/kg/injection, schedule: Q01DX009 (ip), vehicle: saline with Tween-80
[14] = dose: 400.0 mg/kg/injection, schedule: Q01DX009 (ip), vehicle: saline with Tween-80
[15] = dose: 32.0 mg/kg/injection, schedule: Q01DX009 (ip), vehicle: saline
[16] = dose: 64.0 mg/kg/injection, schedule: Q01DX009 (ip), vehicle: saline
[17] = dose: 128.0 mg/kg/injection, schedule: Q01DX009 (ip), vehicle: saline with Tween-80
[18] = dose: 256.0 mg/kg/injection, schedule: Q01DX009 (ip), vehicle: saline with Tween-80
[19] = dose: 512.0 mg/kg/injection, schedule: Q01DX009 (ip), vehicle: saline with Tween-80
[20] = dose: 5.0 mg/kg/injection, schedule: Q01DX009 (ip), vehicle: saline with Tween-80
[21] = dose: 10.0 mg/kg/injection, schedule: Q01DX009 (ip), vehicle: saline with Tween-80
[22] = dose: 20.0 mg/kg/injection, schedule: Q01DX009 (ip), vehicle: saline with Tween-80
[23] = dose: 40.0 mg/kg/injection, schedule: Q01DX009 (ip), vehicle: saline with Tween-80
[24] = dose: 80.0 mg/kg/injection, schedule: Q01DX009 (ip), vehicle: saline with Tween-80
[25] = dose: 200.0 mg/kg/injection, schedule: Q01DX009 (ip), vehicle: saline with Tween-80
[26] = dose: 50.0 mg/kg/injection, schedule: Q01DX009 (ip), vehicle: saline with Tween-80

Measured: T/C

COc1cccc2c1C(=O)c1c(O)c3c(c(O)c1C2=O)C[C@@](O)(C(=O)CO)C[C@@H]3OC1CC(N)C(O)C(C)O1 (some centres not stated)
inactive: [1] 110 % of control | [2] 122 % of control | [3] 114 % of control | [4] 112 % of control and 116 % of control | [5] 119 % of control | [6] 94 % of control and 111 % of control | [7] 115 % of control | dose: 10.0 micrograms/mouse/injection, schedule: Q01DX005 (ip), vehicle: saline 96 % of control | dose: 20.0 micrograms/kg/injection, schedule: Q01DX005 (ip), vehicle: saline 123 % of control | dose: 20.0 micrograms/mouse/injection, schedule: Q01DX005 (ip), vehicle: saline 102 % of control | dose: 40.0 micrograms/kg/injection, schedule: Q01DX005 (ip), vehicle: saline 115 % of control | dose: 40.0 micrograms/mouse/injection, schedule: Q01DX005 (ip), vehicle: saline 105 % of control

O=S(=O)(O)O
inactive: [8] 109 % of control | [9] 108 % of control | [10] 111 % of control | [11] 112 % of control

CC(C)CC(NC(=O)C(O)C(N)Cc1ccccc1)C(=O)O (configuration not stated)
inactive: dose: 10.0 micrograms/kg/injection, schedule: Q01DX005 (ip), vehicle: saline 101 % of control

ClC1C(Cl)C(Cl)C(Cl)C(Cl)C1Cl (configuration not stated)
inactive: [12] 116 % of control | [13] 119 % of control | [14] 86 % of control

c1ccc([C@H]2CN3CCSC3=N2)cc1
inactive: dose: 5.0 mg/kg/injection, schedule: Q01DX009 (ip), vehicle: saline 94 % of control | dose: 10.0 mg/kg/injection, schedule: Q01DX009 (ip), vehicle: saline 96 % of control | dose: 20.0 mg/kg/injection, schedule: Q01DX009 (ip), vehicle: saline 103 % of control

CCOC(=O)NC1=C(N2CC2)C(=O)C(NC(=O)OCC)=C(N2CC2)C1=O
inactive: dose: 0.12 mg/kg/injection, schedule: Q01DX009 (ip), vehicle: saline with Tween-80 99 % of control and 102 % of control and 111 % of control | dose: 0.25 mg/kg/injection, schedule: Q01DX009 (ip), vehicle: saline with Tween-80 105 % of control and 111 % of control | dose: 0.5 mg/kg/injection, schedule: Q01DX009 (ip), vehicle: saline with Tween-80 103 % of control and 105 % of control

COc1ccc(C[C@H](N)C(=O)NC2C(CO)OC(n3cnc4c(N(C)C)ncnc43)C2O)cc1 (some centres not stated)
inactive: [8] 101 % of control | [9] 104 % of control | [10] 104 % of control | [11] 121 % of control

Cc1c2oc3c(C)ccc(C(=O)NC4C(=O)NC(C(C)C)C(=O)N5CCCC5C(=O)N(C)CC(=O)N(C)C(C(C)C)C(=O)OC4C)c3nc-2c(C(=O)NC2C(=O)NC(C(C)C)C(=O)N3CCCC3C(=O)N(C)CC(=O)N(C)C(C(C)C)C(=O)OC2C)c(N)c1=O (configuration not stated) (I: TVP[Sar][NMeV] / II: TVP[Sar][NMeV]; ester I:1-I:C, II:1-II:C; linker I:N-II:N via Actinocin(9to1); configuration not given here)
inactive: dose: 0.03 mg/kg/injection, schedule: Q01DX009 (ip), vehicle: saline 101 % of control | dose: 0.06 mg/kg/injection, schedule: Q01DX009 (ip), vehicle: saline 107 % of control | [1] 101 % of control | [3] 119 % of control

CC1=C(/C=C/C(C)=C/C=C/C(C)=C/CO)C(C)(C)CCC1
inactive: dose: 2.0 mg/kg/injection, schedule: Q01DX009 (ip), vehicle: saline 100 % of control | dose: 4.0 mg/kg/injection, schedule: Q01DX009 (ip), vehicle: saline 100 % of control | dose: 8.0 mg/kg/injection, schedule: Q01DX009 (ip), vehicle: saline 115 % of control | dose: 16.0 mg/kg/injection, schedule: Q01DX009 (ip), vehicle: saline 100 % of control | [15] 98 % of control | [16] 111 % of control

CC(C)NCC(O)COc1cccc2ccccc12 (configuration not stated)
inactive: dose: 4.0 mg/kg/injection, schedule: Q01DX009 (ip), vehicle: saline with Tween-80 111 % of control | [10] 124 % of control | [11] 120 % of control

COc1cccc2c1C(=O)c1c(O)c3c(c(O)c1C2=O)C[C@@](O)(C(C)=O)C[C@@H]3OC1CC(N)C(O)C(C)O1 (some centres not stated)
inactive: [2] 110 % of control | dose: 0.25 mg/kg/injection, schedule: Q01DX009 (ip), vehicle: water 102 % of control | [5] 118 % of control | [7] 118 % of control

Nc1ccnc(=O)[nH]1
inactive: [10] 111 % of control and 115 % of control | [11] 98 % of control and 105 % of control | [17] 104 % of control and 105 % of control | [18] 93 % of control and 105 % of control | [19] 115 % of control and 117 % of control

O=c1cc[nH]c(=O)[nH]1
inactive: [10] 95 % of control and 110 % of control | [11] 96 % of control and 110 % of control | [17] 102 % of control and 105 % of control | [18] 100 % of control and 110 % of control | [19] 94 % of control and 107 % of control

O=[N+]([O-])c1cccc([N+](=O)[O-])c1Cl
inactive: [20] 101 % of control and 120 % of control | [21] 87 % of control and 99 % of control | [22] 120 % of control [middle of 4 runs] | [23] 114 % of control and 96 % of control and 120 % of control | [24] 90 % of control and 93 % of control and 121 % of control | dose: 160.0 mg/kg/injection, schedule: Q01DX009 (ip), vehicle: saline with Tween-80 104 % of control and 99 % of control and 119 % of control | dose: 320.0 mg/kg/injection, schedule: Q01DX009 (ip), vehicle: saline with Tween-80 87 % of control

O=C(N[C@H](CO)[C@H](O)c1ccc([N+](=O)[O-])cc1)C(Cl)Cl
inactive: [13] 118 % of control | [25] 107 % of control | [14] 118 % of control

O=c1ccc2ccccc2o1
inactive: [12] 118 % of control | [26] 105 % of control and 111 % of control | [13] 100 % of control and 111 % of control | [25] 113 % of control

Cc1c[nH]c(=O)[nH]c1=O
inactive: [10] 115 % of control and 118 % of control | [11] 97 % of control and 112 % of control | [17] 86 % of control and 115 % of control | [18] 106 % of control and 118 % of control | [19] 101 % of control and 102 % of control

CN(C)c1nc(N(C)C)nc(N(C)C)n1
inactive: dose: 12.5 mg/kg/injection, schedule: Q01DX009 (ip), vehicle: saline with Tween-80 104 % of control | [12] 90 % of control and 103 % of control | [26] 97 % of control and 102 % of control | [13] 99 % of control

O=C1c2c(O)ccc(O)c2C(=O)c2c(NCCNCCO)ccc(NCCNCCO)c21
inactive: [1] 108 % of control | [3] 117 % of control | [4] 123 % of control | [6] 123 % of control

O=C1C=CC(=O)O1 (tested in a mixture with another compound)
inactive: dose: 12.5 mg/kg/injection, schedule: Q01DX009 (ip), vehicle: saline 113 % of control | dose: 25.0 mg/kg/injection, schedule: Q01DX009 (ip), vehicle: saline 110 % of control | dose: 50.0 mg/kg/injection, schedule: Q01DX009 (ip), vehicle: saline 104 % of control | dose: 100.0 mg/kg/injection, schedule: Q01DX009 (ip), vehicle: saline 110 % of control

CCN(CC)CCCC(C)Nc1c2ccc(Cl)cc2nc2ccc(OC)cc12 (configuration not stated)
inactive: [8] 106 % of control | [9] 114 % of control | [10] 104 % of control | [11] 107 % of control

C[C@]12C=CC(=O)C=C1CC[C@@H]1[C@@H]2C(=O)C[C@@]2(C)[C@H]1CC[C@]2(O)C(=O)CO
inactive: [20] 95 % of control | [21] 98 % of control | [22] 97 % of control | [23] 92 % of control | [24] 92 % of control

O=c1ccn(C2OC(CO)C(O)C2O)c(=O)[nH]1 (configuration not stated)
inactive: [15] 111 % of control | [16] 99 % of control | dose: 128.0 mg/kg/injection, schedule: Q01DX009 (ip), vehicle: saline 93 % of control | dose: 256.0 mg/kg/injection, schedule: Q01DX009 (ip), vehicle: saline 104 % of control | dose: 512.0 mg/kg/injection, schedule: Q01DX009 (ip), vehicle: saline 98 % of control

Source: PubChem BioAssay AID302 (DTP/NCI, 2004)
